# Marks after values point to notes of the source that are not given here.
# Tests used:
# male Wister rats [1] = assay: Effect on triglyceride levels in high fructose diet rats; assay type: in vivo, Wistar rats; conditions: for Triglycerides % of control: actual means; for Serum Triglycerides LSMEAN: least squares mean; for Triglycerides: oral gavage, mean ± SD
# From the text: The effect of the DHA ethyl ester (DHA-EE) produced according to the method of Example 2 on triglyceride levels was investigated using male Wister rats. The DHA-EE used in this example contained DHA at about 93.6% (wt/wt) of the total fatty acid content of the dosage form. The effect of purified DHA-EE was compared to two different DHA-containing products: DHASCO-T® (Martek Bioscience Corporation, Columbia, Md.) and Lovaza® (Reliant Pharmaceuticals, Inc., Durham, N.C.). DHASCO-T® comprises approximately 45% DHA and 55% other fatty acids (with substantially no EPA). Lovaza® comprises approximately 41.7% DHA ethyl ester, 51.7% EPA ethyl ester, and 6.4% other fatty acids. The vehicle control comprised corn oil. 84 Wistar rats were randomized into 7 groups of 12 rats each. Each rat was administered orally a high fructose diet for 4-5 weeks to raise triglyceride levels. After 4-5 weeks, rats with a triglyceride level <300 mg/dL were excluded. Then each rat was administered either (a) a vehicle control, (b) DHA ethyl ester (0.6 g/kg/day, 1.3 g/kg/day, 2.5 g/kg/day, or 5.0 g/kg/day), (c) DHASCO-T (5.0 g/kg/day), or (d) Lovaza (5.0 g/kg/day) for 28 days by oral gavage. Diets were controlled for calories, nutrients and levels of vitamin E. Triglyceride levels of the rats were measured at 14 days and 28 days. Triglyceride values shown are averages for each treatment group, presented as actual mean values.
# The triglyceride results presented below in Table 8 are calculated from the same data set as in Table 7. Triglyceride values shown in Table 8 are averages for each treatment group, presented as least squares mean values.
# male Wister rats [2] = assay: Effect on total cholesterol levels in rats; assay type: in vivo, Wistar rats; conditions: for Serum Cholesterol % of control: actual means; for Serum Cholesterol LSMEAN: least squares mean; for Serum Cholesterol: mean ± SD
# Experimental: The effect of the DHA ethyl ester of Example 2 on cholesterol levels was investigated using male Wister rats, and was compared to DHASCO-T® and Lovaza®. The rats were administered either (a) a vehicle control, (b) DHA ethyl ester (0.6 g/kg/day, 1.3 g/kg/day, 2.5 g/kg/day, or 5.0 g/kg/day), (c) DHASCO-T (5.0 g/kg/day), or (d) Lovaza (5.0 g/kg/day) for 28 days. Cholesterol levels, i.e., total cholesterol, of the rats were measured at 14 days and 28 days. Total cholesterol values shown are averages for each treatment group, i.e., actual mean values.
# The cholesterol results presented below in Table 10 are calculated from the same data set as in Table 9. Cholesterol level values shown in Table 10 are averages for each treatment group, presented as least squares mean values.
# [3] = rat, in vivo
# From the text: The plasma DHA fatty acid area percent and plasma EPA fatty acid area percent were determine in the rats at day 1 and day 29 (post necropsy).
# [4] = day 14, 0.6 g/kg/day fatty acid
# [5] = day 14, 1.3 g/kg/day fatty acid
# [6] = day 14, 2.5 g/kg/day fatty acid
# [7] = day 14, 5.0 g/kg/day fatty acid
# [8] = day 28, 0.6 g/kg/day fatty acid
# [9] = day 28, 1.3 g/kg/day fatty acid
# [10] = day 28, 2.5 g/kg/day fatty acid
# [11] = day 28, 5.0 g/kg/day fatty acid
smiles,measurement,setting,value
"CC/C=C\C/C=C\C/C=C\C/C=C\C/C=C\C/C=C\CCC(=O)OCC [DHA-EE, ethyl docosahexaenoate]",triglyceride levels,"male Wister rats [1]; 14 days, lowest dosage level (0.6 g/kg/day)",reduces triglyceride levels
same,Serum Triglycerides % of control (LSMEAN),male Wister rats [1]; [4],65%
same,Triglycerides % of control,male Wister rats [1]; [4],67%
same,Serum Triglycerides LSMEAN,male Wister rats [1]; [4],168.4† mg/dL
same,Triglycerides,male Wister rats [1]; [4],176.5 ± 96.4 mg/dL
same,Serum Triglycerides % of control (LSMEAN),male Wister rats [1]; [5],67%
same,Triglycerides % of control,male Wister rats [1]; [5],66%
same,Serum Triglycerides LSMEAN,male Wister rats [1]; [5],173.6† mg/dL
same,Triglycerides,male Wister rats [1]; [5],175.2 ± 50.6 mg/dL
same,Serum Triglycerides % of control (LSMEAN),male Wister rats [1]; [6],47%
same,Triglycerides % of control,male Wister rats [1]; [6],44%
same,Serum Triglycerides LSMEAN,male Wister rats [1]; [6],120.2† mg/dL
same,Triglycerides,male Wister rats [1]; [6],115.5 ± 60.9 mg/dL
same,Serum Triglycerides % of control (LSMEAN),male Wister rats [1]; [7],43%
same,Triglycerides % of control,male Wister rats [1]; [7],37%
same,Serum Triglycerides LSMEAN,male Wister rats [1]; [7],110.7† mg/dL
same,Triglycerides,male Wister rats [1]; [7],97.6 ± 47.8 mg/dL
same,triglyceride levels vs control,"male Wister rats [1]; day 28, 0.6 g DHA-EE, DHASCO-T 5.0 g/kg/day",not significantly lower than control
same,Serum Triglycerides % of control (LSMEAN),male Wister rats [1]; [8],93%
same,Triglycerides % of control,male Wister rats [1]; [8],95%
same,Serum Triglycerides LSMEAN,male Wister rats [1]; [8],174.5 mg/dL
same,Triglycerides,male Wister rats [1]; [8],182.7 ± 86.9 mg/dL
same,Serum Triglycerides % of control (LSMEAN),male Wister rats [1]; [9],60%
same,Triglycerides % of control,male Wister rats [1]; [9],60%
same,Serum Triglycerides LSMEAN,male Wister rats [1]; [9],113.1† mg/dL
same,Triglycerides,male Wister rats [1]; [9],114.7 ± 37.2 mg/dL
same,Serum Triglycerides % of control (LSMEAN),male Wister rats [1]; [10],60%
same,Triglycerides % of control,male Wister rats [1]; [10],56%
same,Serum Triglycerides LSMEAN,male Wister rats [1]; [10],112.6† mg/dL
same,Triglycerides,male Wister rats [1]; [10],107.9 ± 58.4 mg/dL
same,Serum Triglycerides % of control (LSMEAN),male Wister rats [1]; [11],47%
same,Triglycerides % of control,male Wister rats [1]; [11],41%
same,Serum Triglycerides LSMEAN,male Wister rats [1]; [11],87.6† mg/dL
same,Triglycerides,male Wister rats [1]; [11],78.9 ± 46.5 mg/dL
same,cholesterol levels,"male Wister rats [2]; by 14 days, lowest dosage level",reduces cholesterol levels
same,Serum Cholesterol % of control (LSMEAN),male Wister rats [2]; [4],80%
same,Serum Cholesterol % of control,male Wister rats [2]; [4],79%
same,Serum Cholesterol LSMEAN,male Wister rats [2]; [4],72.4 mg/dL
same,Serum Cholesterol,male Wister rats [2]; [4],72.2 ± 17.7 mg/dL
same,Serum Cholesterol % of control (LSMEAN),male Wister rats [2]; [5],82%
same,Serum Cholesterol % of control,male Wister rats [2]; [5],82%
same,Serum Cholesterol LSMEAN,male Wister rats [2]; [5],74.6 mg/dL
same,Serum Cholesterol,male Wister rats [2]; [5],75.0 ± 24.0 mg/dL
same,Serum Cholesterol % of control (LSMEAN),male Wister rats [2]; [6],85%
same,Serum Cholesterol % of control,male Wister rats [2]; [6],85%
same,Serum Cholesterol LSMEAN,male Wister rats [2]; [6],77.4 mg/dL
same,Serum Cholesterol,male Wister rats [2]; [6],77.6 ± 23.1 mg/dL
same,Serum Cholesterol % of control (LSMEAN),male Wister rats [2]; [7],75%
same,Serum Cholesterol % of control,male Wister rats [2]; [7],74%
same,Serum Cholesterol LSMEAN,male Wister rats [2]; [7],67.8 mg/dL
same,Serum Cholesterol,male Wister rats [2]; [7],67.1 ± 17.9 mg/dL
same,Serum Cholesterol % of control (LSMEAN),male Wister rats [2]; [8],80%
same,Serum Cholesterol % of control,male Wister rats [2]; [8],80%
same,Serum Cholesterol LSMEAN,male Wister rats [2]; [8],80.6 mg/dL
same,Serum Cholesterol,male Wister rats [2]; [8],80.3 ± 21.8 mg/dL
same,Serum Cholesterol % of control (LSMEAN),male Wister rats [2]; [9],62%
same,Serum Cholesterol % of control,male Wister rats [2]; [9],62%
same,Serum Cholesterol LSMEAN,male Wister rats [2]; [9],61.6† mg/dL
same,Serum Cholesterol,male Wister rats [2]; [9],62.0 ± 16.0 mg/dL
same,Serum Cholesterol % of control (LSMEAN),male Wister rats [2]; [10],72%
same,Serum Cholesterol % of control,male Wister rats [2]; [10],72%
same,Serum Cholesterol LSMEAN,male Wister rats [2]; [10],71.3† mg/dL
same,Serum Cholesterol,male Wister rats [2]; [10],71.5 ± 17.8 mg/dL
same,Serum Cholesterol % of control (LSMEAN),male Wister rats [2]; [11],60%
same,Serum Cholesterol % of control,male Wister rats [2]; [11],60%
same,Serum Cholesterol LSMEAN,male Wister rats [2]; [11],60.9† mg/dL
same,Serum Cholesterol,male Wister rats [2]; [11],60.2 ± 19.3 mg/dL
same,plasma DHA fatty acid area percent,[3],correlates with increasing dosing of DHA
same,plasma EPA fatty acid area percent,[3],does not increase in rats administered DHA-EE or DHASCO® to the same extent that it is increased in Lovaza®

# Source: patent US20110082205A1, “Docosahexaenoic Acid Gel Caps” (priority 2009, published 2011)
